Experimental data published in patent US11000506B2, “Envenomation therapies and related pharmaceutical compositions, systems and kits” (OPHIREX, INC, priority 2014, dated 2021).
Entries after “also recorded” stand apart in the source; their conditions may differ. Read-outs that look alike come from different tables or passages of the source.

What was measured:
[1] = tested on: M. fulvius venom; assay: protection of mice from M. fulvius venom (FIG. 6A-D); format: in vivo
Protocol: (§1) Mice received SC injections of M. fulvius venom at ^˜4 times the expected LD50 (typically estimated to be 1.3 mg/kg SC) (0.1 mg M. fulvius venom/animal for approximate dose of ^˜4 mg/kg). Prior to venom injection animals received either total dose 0.1 mg varespladib exipient (sham treatment) by SC route for calculated concentration of 4 mg/kg varespladib ^˜10-15 minutes before venom administration. Surviving animals were euthanized by CO2 inhalation at the end of experiments and observations periods ranging from ^˜12 hours to as long as 30 hours (survival being designated at 24 hours). […] In mice: Varespladib 4-8 mg/kg subcutaneously or orally with methylvarespladib, taken ad libitum. In rats, varespladib or excipient was administered intravenously at 30 seconds or 5 minutes following subcutaneous administration of venom at 4 or 8 mg/kg. Blood sampling and assay for sPLA2 activity was performed with samples taken from a surgically implanted jugular venous catheter at precise intervals (baseline, 30 minutes, 1 hour and 4 hours).
(§2) 6B Mice fed methylvarespladib or exipient ad libitum in biscuits had high-dose M. fulvius venom administered ^˜5 hours after introduction of the biscuits (N=2 each group). […] 6C Venom and varespladib (4 mg/kg) or venom and excipient were mixed just prior to administration and injected subcutaneously. At 5 hours (300 minutes, down-pointing arrow), surviving animals were retreated with ½ dose varespladib (2 mg/kg) or excipient. […] Mice either received venom and sham/excipient (N=7), methylvarespladib (N=3) or varespladib (N=7) ^˜30 seconds to 1.5 minute following venom administration. […] Confirmatory experiments and results of 6E-H were performed in rats by a contract laboratory to assess expand knowledge of varespladib's capacity to act in therapeutic mode and see if the effects of intravenous administration were similar to subcutaneous administration. 6E and 6F M. fulvius venom was administered subcutaneously (4 mg/kg or 8 mg/kg) and then excipient or varespladib 8 mg/kg was administered at 30 seconds or 5 minutes after envenomation.

[2] = tested on: Daboia russelli venom MP; assay: metalloproteinase activity over time, Daboia russelli venom (FIG. 2B); format: biochemical; details: 100 uM; venom 0.444 mg/mL
Protocol: Substrate for MP was DQ Gelatin and assay run per EnzChek gelatinase assay manufacturers instructions. Venom MP activity was not optimized in initial experiments, but reaction rates were during experiments performed by an independently contracted laboratory. […] These kits were stored as specified if stored at −20° C. Unless otherwise specified, in the case of my experiments, only crude, unfractionated lyophilized venom purchased from Sigma or the Miami Serpentarium were used. Plate Setup: Manufacturers guidelines (paraphrased herein) were followed unless otherwise specified. Data Analysis: xcel per manufacturers recommendations. MP and SP assays were prepared and plated in the same manner as PLA2 assays except substrates and fluorophores were different. PBS was the buffer in the case of MP and SP assays and absorbance measured at 495 nm. Substrate for MP was DQ Gelatin and assay run per EnzChek gelatinase assay manufacturers instructions except that experiments were run, unconventionally at 37 C to estimate human body temperature and initial experiments for PLA2, MP activity and SP activity were not optimized for screening (e.g. extremely high doses of venom were used—10 mg/mL stock in all cases since the quality of the venom was unknown with final concentration of 0.444 mg/mL in the test wells). […]

[3] = tested on: snake venom serine proteases; assay: serine protease activity with excess venom (FIG. 3); format: biochemical; details: 100 um; venom 0.444 mg/mL; compared to marimastat and batimastat
Protocol: Substrate for MP was DQ Gelatin and assay run per EnzChek gelatinase assay manufacturers instructions. Venom MP activity was not optimized in initial experiments, but reaction rates were during experiments performed by an independently contracted laboratory. SP assay was performed using Nα-Benzoyl-L-arginine-7-amido-4-methylcoumarin hydrochloride. […] Unless otherwise specified, in the case of my experiments, only crude, unfractionated lyophilized venom purchased from Sigma or the Miami Serpentarium were used. Plate Setup: Manufacturers guidelines (paraphrased herein) were followed unless otherwise specified. Data Analysis: xcel per manufacturers recommendations. MP and SP assays were prepared and plated in the same manner as PLA2 assays except substrates and fluorophores were different. PBS was the buffer in the case of MP and SP assays and absorbance measured at 495 nm. Substrate for MP was DQ Gelatin and assay run per EnzChek gelatinase assay manufacturers instructions except that experiments were run, unconventionally at 37 C to estimate human body temperature and initial experiments for PLA2, MP activity and SP activity were not optimized for screening (e.g. extremely high doses of venom were used—10 mg/mL stock in all cases since the quality of the venom was unknown with final concentration of 0.444 mg/mL in the test wells). […]

[4] = tested on: Crotalus otrox venom PLA2; assay: venom sPLA2 inhibition IC50, varespladib and CroFab alone and together; format: biochemical, Crotalus atrox
Protocol: Background. Phospholipase A2 (PLA2) catalyzes the hydrolysis of phospholipids at the sn-2 position yielding a free fatty acid and a lysophospholipid. The release of arachidonic acid from membrane phospholipids by PLA is believed to be a key step in the control of eicosanoid production within the cell. The Bee Venom PLA2 Control was a 100 μg/ml solution of bee venom PLA2 is supplied as a positive control in the kit (Abcam kit catalog number ab133089). Substrate for MP was DQ Gelatin and assay run per EnzChek gelatinase assay manufacturers instructions. Venom MP activity was not optimized in initial experiments, but reaction rates were during experiments performed by an independently contracted laboratory. SP assay was performed using Nα-Benzoyl-L-arginine-7-amido-4-methylcoumarin hydrochloride. These kits were stored as specified if stored at −20° C. Unless otherwise specified, in the case of my experiments, only crude, unfractionated lyophilized venom purchased from Sigma or the Miami Serpentarium were used. […] PBS was the buffer in the case of MP and SP assays and absorbance measured at 495 nm. […]
(§3) Small molecule screening and dose-response experiments took place in the Yale Center for Molecular Discovery. […] PerkinElmer EnVision (3) and Tecan infinite M1000 (2) plate readers sensitively measure absorbance, fluorescence, fluorescence polarization and luminescence in 96- and 384-well plate formats. […]

[5] = tested on: Vipera berus venom; assay: survival of mice given Vipera berus venom (FIG. 9); format: in vivo; details: for survival versus controls: N=7
From the text: (§4) V. berus is the most widely distributed viper in the world, ranging across Europe and Eurasia and as far north as the Arctic circle. It elaborates both hemo- and neurotoxins dangerous especially to children, pets and large animals such as horses.

[6] = tested on: snake venom metalloproteinase; assay: time course of metalloproteinase activity with excess venom (FIG. 2A); format: biochemical; details: inhibitors 100 uM; venom 0.444 mg/mL
Protocol: Substrate for MP was DQ Gelatin and assay run per EnzChek gelatinase assay manufacturers instructions. Venom MP activity was not optimized in initial experiments, but reaction rates were during experiments performed by an independently contracted laboratory. SP assay was performed using Nα-Benzoyl-L-arginine-7-amido-4-methylcoumarin hydrochloride. […] Unless otherwise specified, in the case of my experiments, only crude, unfractionated lyophilized venom purchased from Sigma or the Miami Serpentarium were used. Plate Setup: Manufacturers guidelines (paraphrased herein) were followed unless otherwise specified. Data Analysis: xcel per manufacturers recommendations. MP and SP assays were prepared and plated in the same manner as PLA2 assays except substrates and fluorophores were different. PBS was the buffer in the case of MP and SP assays and absorbance measured at 495 nm. Substrate for MP was DQ Gelatin and assay run per EnzChek gelatinase assay manufacturers instructions except that experiments were run, unconventionally at 37 C to estimate human body temperature and initial experiments for PLA2, MP activity and SP activity were not optimized for screening (e.g. extremely high doses of venom were used—10 mg/mL stock in all cases since the quality of the venom was unknown with final concentration of 0.444 mg/mL in the test wells). SP assay was performed using Na-Benzoyl-L-arginine-7-amido-4-methylcoumarin hydrochloride (Sigma). Specifics of contract laboratory technique vary from the present inventor's initial experiments in terms of venom and substrate optimization, plate size (384 instead of 96), volume and temperature and other factors including different operators such as those described immediately below, performed following the first pilot experiments and subsequently extended by a contract laboratory.
(§8) Screening was carried out for inhibitors of venom sPLA2, MP and SPs. Stock solutions of venom at 10 mg/mL were used without typical dilution for assaying various inhibitors of sPLA2, MP and SPs. The final venom concentration in the assays was very high at 0.444 mg/mL.

[7] = tested on: D. russelli venom; assay: survival of mice given Daboia russelli venom (FIG. 8); format: in vivo; details: varespladib 4 mg/kg SC 60 to 90 minutes before lethal dose of D. russelli venom; N=3
[8] = tested on: C. scutulatus venom; assay: survival of mice coinjected with C. scutulatus venom (FIG. 7A); format: in vivo; details: coinjected SC with C. scutulatus venom, single dose; N=4
[9] = tested on: snake venom PLA2; format: biochemical
Protocol: Background. Phospholipase A2 (PLA2) catalyzes the hydrolysis of phospholipids at the sn-2 position yielding a free fatty acid and a lysophospholipid. The release of arachidonic acid from membrane phospholipids by PLA is believed to be a key step in the control of eicosanoid production within the cell. The Bee Venom PLA2 Control was a 100 μg/ml solution of bee venom PLA2 is supplied as a positive control in the kit (Abcam kit catalog number ab133089). Substrate for MP was DQ Gelatin and assay run per EnzChek gelatinase assay manufacturers instructions. Venom MP activity was not optimized in initial experiments, but reaction rates were during experiments performed by an independently contracted laboratory. SP assay was performed using Nα-Benzoyl-L-arginine-7-amido-4-methylcoumarin hydrochloride. These kits were stored as specified if stored at −20° C. Unless otherwise specified, in the case of my experiments, only crude, unfractionated lyophilized venom purchased from Sigma or the Miami Serpentarium were used. Plate Setup: Manufacturers guidelines (paraphrased herein) were followed unless otherwise specified. Data Analysis: xcel per manufacturers recommendations. MP and SP assays were prepared and plated in the same manner as PLA2 assays except substrates and fluorophores were different. PBS was the buffer in the case of MP and SP assays and absorbance measured at 495 nm. […]
as §3

[10] = tested on: Crotalus adamanteus venom PLA2; assay: venom sPLA2 inhibition IC50, varespladib and CroFab alone and together; format: biochemical
Protocol: (§5) Background. Phospholipase A2 (PLA2) catalyzes the hydrolysis of phospholipids at the sn-2 position yielding a free fatty acid and a lysophospholipid. The release of arachidonic acid from membrane phospholipids by PLA is believed to be a key step in the control of eicosanoid production within the cell. The Bee Venom PLA2 Control was a 100 μg/ml solution of bee venom PLA2 is supplied as a positive control in the kit (Abcam kit catalog number ab133089). Substrate for MP was DQ Gelatin and assay run per EnzChek gelatinase assay manufacturers instructions. Venom MP activity was not optimized in initial experiments, but reaction rates were during experiments performed by an independently contracted laboratory. SP assay was performed using Nα-Benzoyl-L-arginine-7-amido-4-methylcoumarin hydrochloride. These kits were stored as specified if stored at −20° C. Unless otherwise specified, in the case of my experiments, only crude, unfractionated lyophilized venom purchased from Sigma or the Miami Serpentarium were used. Plate Setup: Manufacturers guidelines (paraphrased herein) were followed unless otherwise specified. Data Analysis: xcel per manufacturers recommendations. MP and SP assays were prepared and plated in the same manner as PLA2 assays except substrates and fluorophores were different. PBS was the buffer in the case of MP and SP assays and absorbance measured at 495 nm. Substrate for MP was DQ Gelatin and assay run per EnzChek gelatinase assay manufacturers instructions except that experiments were run, unconventionally at 37 C to estimate human body temperature and initial experiments for PLA2, MP activity and SP activity were not optimized for screening (e.g. extremely high doses of venom were used—10 mg/mL stock in all cases since the quality of the venom was unknown with final concentration of 0.444 mg/mL in the test wells). SP assay was performed using Na-Benzoyl-L-arginine-7-amido-4-methylcoumarin hydrochloride (Sigma). Specifics of contract laboratory technique vary from the present inventor's initial experiments in terms of venom and substrate optimization, plate size (384 instead of 96), volume and temperature and other factors including different operators such as those described immediately below, performed following the first pilot experiments and subsequently extended by a contract laboratory.
(§6) Small molecule screening and dose-response experiments took place in the Yale Center for Molecular Discovery. Instrumentation used when indicated included Tecan EVO (2), Tecan Aquarius, Matrix PlateMatePlus (2), Matrix PlateMate2×2 liquid transfer robots and Titertek and Thermo Multidrop liquid dispensers (7). PerkinElmer EnVision (3) and Tecan infinite M1000 (2) plate readers sensitively measure absorbance, fluorescence, fluorescence polarization and luminescence in 96- and 384-well plate formats. A GE InCell Analyzer 2200 imaging system acquires multicolor fluorescent and transmitted light images from plates. Piloting collections used in the first phases of screening were selected by the inventor or from libraries of known compounds and natural products available at the time of experiments on selected venoms including: NCC, GenPlus, Pharmakon, Bioactive lipids, Protease Inhibitors, Procured Drugs and FDA Approved Drugs libraries. The GenPlus (the NINDS Custom Collection) from MicroSource Discovery Systems contains 960 compounds. This unique selection of known bioactive compounds permits the simultaneous evaluation of hundreds of marketed drugs and biochemical standards. The Pharmakon 1600 collection (MicroSource) includes known drugs used globally or studied in clinical trials.
(§7) Each assay was characterized in similar fashion, using methodology well-established in the Center. Assays are typically performed in 384-well microtiter plates.

[11] = tested on: Acanthophis antarcticus venom PLA2; assay: as above; format: biochemical
Protocol: as §5, §6, §7

[12] = tested on: Agkistrodon contortrix venom PLA2; assay: as above; format: biochemical
Protocol: as §5, §6, §7

[13] = tested on: Crotalus scutulatus scutulatus venom PLA2; assay: as above; format: biochemical
Protocol: as §5, §6, §7

[14] = tested on: Agkistrodon piscivorus venom PLA2; assay: as above; format: biochemical
Protocol: as §5, §6, §7

[15] = tested on: snake venom PLA2; assay: time course of PLA2 activity with excess venom (FIG. 1); format: biochemical; details: inhibitor 100 uM; venom 0.444 mg/mL final; 37 C
From the text: Plate Setup: Manufacturers guidelines (paraphrased herein) were followed unless otherwise specified. Data Analysis: xcel per manufacturers recommendations. […] Substrate for MP was DQ Gelatin and assay run per EnzChek gelatinase assay manufacturers instructions except that experiments were run, unconventionally at 37 C to estimate human body temperature and initial experiments for PLA2, MP activity and SP activity were not optimized for screening (e.g. extremely high doses of venom were used—10 mg/mL stock in all cases since the quality of the venom was unknown with final concentration of 0.444 mg/mL in the test wells).
as §8

[16] = molecular target: bee venom PLA2 (Apis mellifera, UniProt P00630); format: biochemical
bee venom PLA2, sequence (P00630 34-167 limits assumed): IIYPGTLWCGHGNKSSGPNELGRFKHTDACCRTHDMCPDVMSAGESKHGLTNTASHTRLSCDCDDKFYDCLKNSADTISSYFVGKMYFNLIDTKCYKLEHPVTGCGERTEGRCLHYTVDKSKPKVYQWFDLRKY

[17] = tested on: M. fulvius venom; assay: treatment of rats after M. fulvius venom (FIG. 6E-H); format: in vivo; details: varespladib IV
Protocol: as §1, §2

[18] = varespladib alone, no venom; N=2
From the text: as §4

[19] = tested on: C. atrox venom MP; assay: HTS for inhibitors of C. Atrox venom MP; format: biochemical
Protocol: as §5
as §6, with “This unique selection of known bioactive compounds permits the simultaneous evaluation of hundreds of marketed drugs and biochemical standards. The Pharmakon 1600 collection (MicroSource) includes known drugs used globally or studied in clinical trials.” left out

[20] = tested on: E. carinatus venom MP; assay: HTS for inhibitors of E. carinatus venom MP; format: biochemical; details: compounds approximately 10 μM/well
Protocol: as §5
as §6, with “This unique selection of known bioactive compounds permits the simultaneous evaluation of hundreds of marketed drugs and biochemical standards. The Pharmakon 1600 collection (MicroSource) includes known drugs used globally or studied in clinical trials.” left out

[21] = molecular target: snake venom metalloproteinase; assay: IC50 for MP inhibition on various venoms (Table 8, FIG. 20); format: biochemical; details: general statement; values only in figures
[22] = tested on: M. fulvius venom PLA2; assay: HTS for inhibitors of M. fulvius venom PLA2; format: biochemical; details: compounds approximately 10 μM/well
[23] = varespladib alone, read-out: Varespladib (IC50 nM)
[24] = varespladib and CroFab ® together, read-out: Varespladib IC50 (nM) With CroFab ®

CCc1c(C(=O)C(N)=O)c2c(OCC(=O)O)cccc2n1Cc1ccccc1 [Varespladib]
mice that died within 8 hours ([1]; varespladib 4 mg/kg SC minutes before M. fulvius venom 4 mg/kg SC): 0 of 5
mice survived to the endpoint of 24 hours ([1]; {}): 5/5
inhibition of Daboia russelli venom MP over time [2]: comparable inhibition
inhibitory effects on snake venom serine proteases [3]: unexpected inhibitory effects
IC50 [4, 23]: 0.32 nM
IC50 [4, 24]: 0.07 nM
animals that outlived controls ([5]; Venom SC followed by Varespladib SC 8 mg/kg): 4 of 5
survival versus controls ([5]; lethal venom dose just prior to SC varespladib): outlived controls
animals surviving 24 hours ([5]; varespladib IV 8 mg/kg lateral tail vein following venom): 5 of 5
survival versus controls ([5]; venom and varespladib injected simultaneously SC): outlived controls
inhibition of metalloproteinase activity (time course) [6]: showed inhibition of MP activity in several snake venoms
survival at 24 hours [7]: all survived 24 hours
survival versus controls [7]: outlived controls
survival versus venom only controls [8]: outlived controls
inhibition of snake venom PLA2 in vitro [9]: inhibited snake venom PLA2; also recorded: inhibited the measured sPLA2 activity of several medically important snake venoms
IC50 ([9]; read-out: IC50s specific for snake venoms, lowest value): ≥ 0.05 nM
IC50 [10, 23]: 0.25 nM
IC50 [10, 24]: 0.05 nM
IC50 [11, 23]: 0.74 nM
IC50 [11, 24]: 0.43 nM
IC50 [12, 23]: 0.22 nM
IC50 [12, 24]: 0.045 nM
IC50 [13, 23]: 1.51 nM
IC50 [13, 24]: 0.82 nM
IC50 [14, 23]: 0.28 nM
IC50 [14, 24]: 0.05 nM
inhibition of snake venom PLA2 activity (time course) [15]: inhibited PLA2 activity in all snake venoms tested
inhibition of bee venom PLA2 [16]: not inhibited; also recorded: only a modest effect
sPLA2 activity in blood samples ([17]; high dose coral snake venom SC, baseline, 30 minutes, 1 hour, 4 hours): dramatic suppression of sPLA2 activity
gross hemolysis in serum samples ([17]; venom SC): no or minimally visible hemolysis
pulmonary hemorrhage at necropsy ([17]; venom SC): either no or minimal pulmonary hemorrhage
signs of toxicity [18]: no signs of toxicity

O=C(CCCCCCC(=O)Nc1ccccc1)NO [Vorinostat]
percental (%) reduction of MP activity ([19]; compounds approximately 10 μM/well): 42%

CCCCN1CCCCC1C(=O)Nc1c(C)cccc1C (stereo not drawn) [bupvicaine]
% Effect on E. carinatus venom MP [20]: > 10%

CCN(CC)CCN(Cc1ccc(-c2ccc(C(F)(F)F)cc2)cc1)C(=O)Cn1c(SCc2ccc(F)cc2)nc(=O)c2c1CCC2 [darapladib]
inhibition of bee venom PLA2 [16]: not inhibited

CCOC(=O)c1ccc(OC(=O)CCCCCNC(=N)N)cc1 [gabexate, ethyl-p[6-guanidinohexanoyloxy]-benzoate methansulfonate]
MP inhibition (in words) [19]: MP inhibition was seen
% Effect on E. carinatus venom MP [20]: 23%
IC50s on various venoms [21]: micromolar range

CNC(=O)[C@@H](NC(=O)[C@H](CC(C)C)[C@H](O)C(=O)NO)C(C)(C)C [marimastat]
inhibition of Daboia russelli venom MP over time [2]: comparable inhibition
inhibition of metalloproteinase activity (time course) [6]: most consistently showing significant inhibition

CCc1c(C(=O)C(N)=O)c2c(OCC(=O)OC)cccc2n1Cc1ccccc1 [methylvarespladib]
signs or symptoms of envenomation / protection from the effects of the venom ([1]; methylvarespladib fed ad libitum in biscuits, high-dose venom ~5 hours later, N=2): complete protection; also recorded: Neither treated mouse exhibited any signs or symptoms of envenomation
inhibitory effects on snake venom serine proteases [3]: unexpected inhibitory effects
inhibition of snake venom PLA2 in vitro [9]: inhibited the measured sPLA2 activity of several medically important snake venoms
inhibition of bee venom PLA2 [16]: only a modest effect

Ceramide
% effect (% inhibition) on M. fulvius venom PLA2 [22]: 43%
